Four compounds from the kinase profiling compilation of Christmann-Franck et al. (2016) can be followed below.

The target of one assay is CAMK2D (human) (UniProt Q13557). The assay is described as follows: KINOMEscan competition binding. Conditions: compound 10.0 µM.
Another assay deals with DCLK1 (human) (UniProt O15075). The assay is described as follows: KINOMEscan competition binding. Particulars: compound 10.0 µM.
For another assay, the target named is GAK (human) (UniProt O14976). Description: KINOMEscan competition binding. Particulars: compound 10.0 µM.
The target of the next assay is PLK1 (human) (UniProt P53350). The assay is described as follows: KINOMEscan competition binding. Particulars: compound 10.0 µM.
A further assay concerns the target RPS6KA2 KD2 (human) (UniProt Q15349). Description: KINOMEscan competition binding. Particulars: compound 10.0 µM.
For a further assay, the target named is STK33 (human) (UniProt Q9BYT3). The assay is described as follows: KINOMEscan competition binding. Particulars: compound 10.0 µM.
The next assay has as its target TNK1 (human) (UniProt Q13470). Description: KINOMEscan competition binding. Particulars: compound 10.0 µM.
The target of assay [1] is TTK (human) (UniProt P33981). Description: KINOMEscan competition binding. Conditions: for kinase still bound, per cent of control: compound 10.0 µM.
Chain of TTK (human) (P33981 whole entry, looked up): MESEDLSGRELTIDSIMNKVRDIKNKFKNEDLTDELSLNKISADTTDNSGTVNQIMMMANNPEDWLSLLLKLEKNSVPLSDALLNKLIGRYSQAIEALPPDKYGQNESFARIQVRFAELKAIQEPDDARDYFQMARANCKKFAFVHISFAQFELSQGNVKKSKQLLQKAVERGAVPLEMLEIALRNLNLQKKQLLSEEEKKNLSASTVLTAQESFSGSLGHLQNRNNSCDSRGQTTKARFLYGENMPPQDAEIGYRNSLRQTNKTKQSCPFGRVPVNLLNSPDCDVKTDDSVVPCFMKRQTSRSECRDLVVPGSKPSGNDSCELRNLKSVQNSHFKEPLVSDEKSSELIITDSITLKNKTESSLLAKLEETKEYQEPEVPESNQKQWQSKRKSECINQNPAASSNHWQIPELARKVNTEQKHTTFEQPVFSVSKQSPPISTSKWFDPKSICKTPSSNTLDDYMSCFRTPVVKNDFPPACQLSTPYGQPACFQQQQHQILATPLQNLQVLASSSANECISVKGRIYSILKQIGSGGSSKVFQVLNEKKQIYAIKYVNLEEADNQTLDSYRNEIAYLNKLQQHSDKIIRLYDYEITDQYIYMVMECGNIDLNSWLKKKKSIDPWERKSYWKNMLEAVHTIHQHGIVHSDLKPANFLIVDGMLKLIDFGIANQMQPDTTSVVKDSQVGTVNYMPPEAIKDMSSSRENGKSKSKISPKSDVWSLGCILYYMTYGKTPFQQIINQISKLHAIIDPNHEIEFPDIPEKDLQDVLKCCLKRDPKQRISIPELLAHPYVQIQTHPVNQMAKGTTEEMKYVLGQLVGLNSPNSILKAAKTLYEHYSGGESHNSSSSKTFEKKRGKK
In a further assay the target is DCLK2 (human) (UniProt Q8N568). The assay is described as follows: SelectScreen, TR FRET. In general terms: Time-resolved FRET reads energy transfer from a long-lived donor to a nearby acceptor.
Assay [2] has as its target TTK (human) (UniProt P33981). The assay is described as follows: SelectScreen, TR FRET.
The target of assay [3] is JAK2 JH1 catalytic (human) (UniProt O60674). Description: KINOMEscan competition binding. Particulars: compound 10.0 µM.
The next assay concerns the target PLK4 (human) (UniProt O00444). Description: KINOMEscan competition binding. Conditions: compound 10.0 µM.
A further assay has as its target CSF1R (human) (UniProt P07333). The assay is described as follows: SelectScreen, TR FRET.
The target of the next assay is FRK (human) (UniProt P42685). The assay is described as follows: SelectScreen, TR FRET.
The next assay has as its target PTK6 (human) (UniProt Q13882). Description: SelectScreen, TR FRET.
The next assay has as its target ACVR2B (human) (UniProt Q13705). Description: KINOMEscan competition binding. Conditions: compound 10.0 µM.
The next assay concerns the target BRAF (human) (UniProt P15056). The assay is described as follows: KINOMEscan competition binding. Conditions: compound 10.0 µM.
For the next assay, the target named is CDK16 (human) (UniProt Q00536). The assay is described as follows: KINOMEscan competition binding. Conditions: compound 10.0 µM.
Another assay has as its target CDK3 (human) (UniProt Q00526). The assay is described as follows: KINOMEscan competition binding. Particulars: compound 10.0 µM.
In the next assay the target is CDK5 (human) (UniProt Q00535). Description: KINOMEscan competition binding. Conditions: compound 10.0 µM.
The next assay has as its target CDK7 (human) (UniProt P50613). Description: KINOMEscan competition binding. Conditions: compound 10.0 µM.
The target of a further assay is DAPK1 (human) (UniProt P53355). Description: KINOMEscan competition binding. Conditions: compound 10.0 µM.
In the next assay the target is DAPK2 (human) (UniProt Q9UIK4). Description: KINOMEscan competition binding. Particulars: compound 10.0 µM.
Chain of DAPK2 (human) (Q9UIK4 whole entry, looked up): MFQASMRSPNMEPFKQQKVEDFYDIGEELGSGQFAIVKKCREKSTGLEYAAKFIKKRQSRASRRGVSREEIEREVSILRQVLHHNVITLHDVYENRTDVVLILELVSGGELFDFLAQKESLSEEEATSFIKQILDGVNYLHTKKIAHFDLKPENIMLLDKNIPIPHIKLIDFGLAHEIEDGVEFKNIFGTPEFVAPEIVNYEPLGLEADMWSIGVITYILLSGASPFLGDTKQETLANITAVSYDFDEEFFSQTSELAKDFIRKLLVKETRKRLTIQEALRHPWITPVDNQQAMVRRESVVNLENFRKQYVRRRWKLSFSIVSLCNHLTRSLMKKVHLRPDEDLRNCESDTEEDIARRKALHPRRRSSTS
A further assay addresses DAPK3 (human) (UniProt O43293). The assay is described as follows: KINOMEscan competition binding. Particulars: compound 10.0 µM.
For the next assay, the target named is GSK3A (human) (UniProt P49840). The assay is described as follows: KINOMEscan competition binding. Conditions: compound 10.0 µM.
Assay [4] addresses HIPK1 (human) (UniProt Q86Z02). The assay is described as follows: KINOMEscan competition binding. Particulars: compound 10.0 µM.
The target of another assay is MAPK12 (human) (UniProt P53778). Description: KINOMEscan competition binding. Particulars: compound 10.0 µM.
For a further assay, the target named is MAPK15 (human) (UniProt Q8TD08). Description: KINOMEscan competition binding. Conditions: compound 10.0 µM.
A further assay deals with MYLK4 (human) (UniProt Q86YV6). The assay is described as follows: KINOMEscan competition binding. Conditions: compound 10.0 µM.
A further assay deals with NLK (human) (UniProt Q9UBE8). Description: KINOMEscan competition binding. Particulars: compound 10.0 µM.
Assay [5] addresses PIM1 (human) (UniProt P11309). Description: KINOMEscan competition binding. Conditions: compound 10.0 µM.
The target of assay [6] is PIM2 (human) (UniProt Q9P1W9). Description: KINOMEscan competition binding. Conditions: compound 10.0 µM.
Chain of PIM2 (human) (Q9P1W9 whole entry, looked up): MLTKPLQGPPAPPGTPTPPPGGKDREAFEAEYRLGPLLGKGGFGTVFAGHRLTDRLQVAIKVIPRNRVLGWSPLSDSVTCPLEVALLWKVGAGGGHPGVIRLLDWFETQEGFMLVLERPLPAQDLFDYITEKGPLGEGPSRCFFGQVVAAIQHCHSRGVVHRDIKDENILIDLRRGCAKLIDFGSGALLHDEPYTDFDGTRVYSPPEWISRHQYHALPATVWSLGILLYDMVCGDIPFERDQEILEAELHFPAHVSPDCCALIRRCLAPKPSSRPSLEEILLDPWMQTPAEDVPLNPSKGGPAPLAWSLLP
The target in a further assay is PIM3 (human) (UniProt Q86V86). The assay is described as follows: KINOMEscan competition binding. Particulars: compound 10.0 µM.
The target of the next assay is STK17A (human) (UniProt Q9UEE5). Description: KINOMEscan competition binding. Particulars: compound 10.0 µM.
Chain of STK17A (human) (Q9UEE5 whole entry, looked up): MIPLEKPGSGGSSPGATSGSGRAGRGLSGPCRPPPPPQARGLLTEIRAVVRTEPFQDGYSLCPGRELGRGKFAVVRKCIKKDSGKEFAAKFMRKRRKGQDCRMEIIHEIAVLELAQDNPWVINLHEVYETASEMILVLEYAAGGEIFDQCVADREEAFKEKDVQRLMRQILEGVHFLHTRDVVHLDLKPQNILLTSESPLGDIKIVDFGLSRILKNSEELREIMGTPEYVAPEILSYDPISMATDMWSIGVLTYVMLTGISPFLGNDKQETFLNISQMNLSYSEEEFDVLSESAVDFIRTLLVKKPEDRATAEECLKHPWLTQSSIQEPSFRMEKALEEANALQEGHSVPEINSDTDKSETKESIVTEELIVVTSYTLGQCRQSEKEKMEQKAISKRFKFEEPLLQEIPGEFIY
Another assay deals with STK17B (human) (UniProt O94768). The assay is described as follows: KINOMEscan competition binding. Conditions: compound 10.0 µM.
Chain of STK17B (human) (O94768 whole entry, looked up): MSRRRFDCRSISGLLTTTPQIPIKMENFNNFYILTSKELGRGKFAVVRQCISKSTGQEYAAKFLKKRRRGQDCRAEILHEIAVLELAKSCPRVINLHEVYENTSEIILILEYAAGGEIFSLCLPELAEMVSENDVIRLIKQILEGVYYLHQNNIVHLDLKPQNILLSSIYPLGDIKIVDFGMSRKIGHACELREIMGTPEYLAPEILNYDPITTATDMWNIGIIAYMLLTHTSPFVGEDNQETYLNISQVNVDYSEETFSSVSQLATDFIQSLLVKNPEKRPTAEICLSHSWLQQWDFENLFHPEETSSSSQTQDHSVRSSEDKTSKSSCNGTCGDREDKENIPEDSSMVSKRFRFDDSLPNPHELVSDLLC
For another assay, the target named is TAOK1 (human) (UniProt Q7L7X3). Description: KINOMEscan competition binding. Particulars: compound 10.0 µM.
Another assay concerns the target TAOK3 (human) (UniProt Q9H2K8). Description: KINOMEscan competition binding. Particulars: compound 10.0 µM.
The target in a further assay is TGFBR2 (human) (UniProt P37173). The assay is described as follows: KINOMEscan competition binding. Particulars: compound 10.0 µM.
Assay [7] addresses PIM1 (human) (UniProt P11309). The assay is described as follows: SelectScreen, TR FRET.
For assay [8], the target named is PIM2 (human) (UniProt Q9P1W9). The assay is described as follows: SelectScreen, TR FRET.
A further assay deals with AAK1 (human) (UniProt Q2M2I8). The assay is described as follows: KINOMEscan competition binding. Particulars: compound 10.0 µM.
In a further assay the target is BMPR1B (human) (UniProt O00238). Description: KINOMEscan competition binding. Conditions: compound 10.0 µM.
Another assay concerns the target CAMKK2 (human) (UniProt Q96RR4). Description: KINOMEscan competition binding. Conditions: compound 10.0 µM.
In another assay the target is CLK1 (human) (UniProt P49759). The assay is described as follows: KINOMEscan competition binding. Conditions: compound 10.0 µM.
The target of a further assay is CLK2 (human) (UniProt P49760). The assay is described as follows: KINOMEscan competition binding. Conditions: compound 10.0 µM.
The target of a further assay is CLK4 (human) (UniProt Q9HAZ1). The assay is described as follows: KINOMEscan competition binding. Conditions: compound 10.0 µM.
The target in another assay is CSNK1G1 (human) (UniProt Q9HCP0). The assay is described as follows: KINOMEscan competition binding. Particulars: compound 10.0 µM.
Assay [9] deals with DYRK1B (human) (UniProt Q9Y463). The assay is described as follows: KINOMEscan competition binding. Conditions: compound 10.0 µM.
Chain of DYRK1B (human) (Q9Y463 whole entry, looked up): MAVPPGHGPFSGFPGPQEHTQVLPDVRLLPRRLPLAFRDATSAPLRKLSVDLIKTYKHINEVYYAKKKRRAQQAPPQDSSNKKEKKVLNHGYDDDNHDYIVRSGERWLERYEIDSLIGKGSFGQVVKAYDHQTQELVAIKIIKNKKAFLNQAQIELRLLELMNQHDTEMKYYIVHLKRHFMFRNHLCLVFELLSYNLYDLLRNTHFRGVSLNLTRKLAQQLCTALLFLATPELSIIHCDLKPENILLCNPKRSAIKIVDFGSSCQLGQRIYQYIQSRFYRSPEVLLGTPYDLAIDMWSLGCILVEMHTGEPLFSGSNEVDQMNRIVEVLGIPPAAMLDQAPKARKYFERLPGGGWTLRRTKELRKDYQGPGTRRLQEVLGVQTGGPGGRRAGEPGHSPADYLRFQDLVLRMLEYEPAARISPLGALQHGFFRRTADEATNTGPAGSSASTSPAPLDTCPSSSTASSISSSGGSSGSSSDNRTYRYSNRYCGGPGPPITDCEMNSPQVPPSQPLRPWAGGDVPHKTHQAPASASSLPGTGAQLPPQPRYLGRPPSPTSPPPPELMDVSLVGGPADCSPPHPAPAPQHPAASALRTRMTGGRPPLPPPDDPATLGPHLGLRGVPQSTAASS
The test system of assay [10] is EIF2AK4 KD2 (human), Q9P2K8 [S808G]. Description: KINOMEscan competition binding. Particulars: compound 10.0 µM.
The target in the next assay is MAP4K2 (human) (UniProt Q12851). Description: KINOMEscan competition binding. Conditions: compound 10.0 µM.
The next assay has as its target MAPK10 (human) (UniProt P53779). The assay is described as follows: KINOMEscan competition binding. Conditions: compound 10.0 µM.
The target in the next assay is MAPK8 (human) (UniProt P45983). Description: KINOMEscan competition binding. Conditions: compound 10.0 µM.
A further assay deals with PAK2 (human) (UniProt Q13177). Description: KINOMEscan competition binding. Conditions: compound 10.0 µM.
The next assay addresses RPS6KA4 KD2 (human) (UniProt O75676). The assay is described as follows: KINOMEscan competition binding. Particulars: compound 10.0 µM.
A further assay concerns the target RPS6KA5 KD2 (human) (UniProt O75582). The assay is described as follows: KINOMEscan competition binding. Particulars: compound 10.0 µM.
The target in the next assay is DYRK1A (human) (UniProt Q13627). Description: SelectScreen, TR FRET.
Assay [11] has as its target DYRK1B (human) (UniProt Q9Y463). Description: SelectScreen, TR FRET.
Assay [12] addresses HIPK1 (human) (UniProt Q86Z02). Description: SelectScreen, TR FRET.
Another assay deals with HIPK2 (human) (UniProt Q9H2X6). The assay is described as follows: SelectScreen, TR FRET.

Chain of PIM1 (human) (P11309 whole entry, looked up): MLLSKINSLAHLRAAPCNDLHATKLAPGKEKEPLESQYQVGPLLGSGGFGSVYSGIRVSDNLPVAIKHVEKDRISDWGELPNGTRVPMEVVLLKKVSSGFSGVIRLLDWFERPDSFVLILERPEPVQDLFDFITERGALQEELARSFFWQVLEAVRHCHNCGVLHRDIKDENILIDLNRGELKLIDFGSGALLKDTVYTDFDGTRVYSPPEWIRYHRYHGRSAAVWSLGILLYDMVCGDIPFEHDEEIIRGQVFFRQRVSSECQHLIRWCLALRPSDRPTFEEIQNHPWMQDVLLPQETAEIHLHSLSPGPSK
Chain of HIPK1 (human) (Q86Z02 whole entry, looked up): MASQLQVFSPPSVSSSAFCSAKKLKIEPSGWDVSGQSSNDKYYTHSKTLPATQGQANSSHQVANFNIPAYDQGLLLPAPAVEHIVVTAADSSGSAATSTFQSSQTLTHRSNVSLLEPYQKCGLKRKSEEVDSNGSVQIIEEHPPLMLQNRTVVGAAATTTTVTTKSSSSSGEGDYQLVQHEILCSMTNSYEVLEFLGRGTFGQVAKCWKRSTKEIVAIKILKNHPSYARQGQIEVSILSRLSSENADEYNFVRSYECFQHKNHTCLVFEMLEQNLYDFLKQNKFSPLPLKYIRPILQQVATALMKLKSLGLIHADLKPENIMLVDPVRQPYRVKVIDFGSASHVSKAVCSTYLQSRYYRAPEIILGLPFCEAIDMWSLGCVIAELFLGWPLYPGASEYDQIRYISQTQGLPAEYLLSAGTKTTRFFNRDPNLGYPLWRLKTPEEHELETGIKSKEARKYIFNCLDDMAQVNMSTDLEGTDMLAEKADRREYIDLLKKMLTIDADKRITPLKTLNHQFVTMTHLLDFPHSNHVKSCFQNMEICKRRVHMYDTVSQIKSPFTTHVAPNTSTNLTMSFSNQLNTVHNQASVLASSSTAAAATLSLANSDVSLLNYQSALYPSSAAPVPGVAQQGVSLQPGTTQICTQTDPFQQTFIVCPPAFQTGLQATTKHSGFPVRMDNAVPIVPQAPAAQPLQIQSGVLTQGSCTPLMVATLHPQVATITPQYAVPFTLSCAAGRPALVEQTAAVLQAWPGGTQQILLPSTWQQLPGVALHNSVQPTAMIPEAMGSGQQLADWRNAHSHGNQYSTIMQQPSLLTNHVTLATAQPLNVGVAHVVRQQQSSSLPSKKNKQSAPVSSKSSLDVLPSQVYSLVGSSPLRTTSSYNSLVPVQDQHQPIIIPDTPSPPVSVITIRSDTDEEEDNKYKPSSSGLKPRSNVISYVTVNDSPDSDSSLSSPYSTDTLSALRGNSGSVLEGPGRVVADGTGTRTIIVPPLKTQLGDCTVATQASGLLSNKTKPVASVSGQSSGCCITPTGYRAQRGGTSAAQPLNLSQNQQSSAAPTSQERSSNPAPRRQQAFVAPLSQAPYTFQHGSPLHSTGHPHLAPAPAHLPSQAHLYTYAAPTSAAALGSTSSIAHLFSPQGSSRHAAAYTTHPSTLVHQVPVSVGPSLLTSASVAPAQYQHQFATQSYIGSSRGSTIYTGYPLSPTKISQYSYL
Chain of DAPK3 (human) (O43293 whole entry, looked up): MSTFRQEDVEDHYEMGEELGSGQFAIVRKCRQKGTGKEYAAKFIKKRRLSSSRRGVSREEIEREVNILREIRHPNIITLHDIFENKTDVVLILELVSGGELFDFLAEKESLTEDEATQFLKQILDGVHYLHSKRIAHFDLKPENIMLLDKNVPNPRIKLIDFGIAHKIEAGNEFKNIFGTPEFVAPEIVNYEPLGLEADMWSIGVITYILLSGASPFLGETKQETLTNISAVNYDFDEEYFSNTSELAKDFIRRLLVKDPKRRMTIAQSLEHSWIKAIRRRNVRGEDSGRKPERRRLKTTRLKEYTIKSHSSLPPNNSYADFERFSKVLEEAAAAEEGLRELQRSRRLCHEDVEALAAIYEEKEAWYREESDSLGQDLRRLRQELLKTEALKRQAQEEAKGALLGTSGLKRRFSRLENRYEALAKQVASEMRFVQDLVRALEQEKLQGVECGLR

The Kd is the equilibrium constant for the complex coming apart. Read a low Kd as a tighter complex. By IC50 is commonly meant the point on the concentration scale where inhibition reaches its midpoint. High values mean weaker potency, low ones greater potency. In the case of `CCOc1cc(N2CCC(O)CC2)ccc1Nc1ncc2c(n1)N(C1CCCC1)CCC(=O)N2CC`, the kinase still bound, per cent of control at CAMK2D (human) was 27%; on DCLK1 (human), 27%; on GAK (human), 8.2%; on PLK1 (human) it was 1.2%; at RPS6KA2 KD2 (human), 13%; at STK33 (human), 22%. Moreover, the kinase still bound, per cent of control was found to be 33% at TNK1 (human) and 3.9% at TTK (human) [1]. Moreover, at TTK (human) [1], the Kd came out at 106 nM. The values for the IC50 at DCLK2 (human) and at TTK (human) [2] were 556 nM and 1010 nM, respectively.

As for `CN1C(=O)CCN(C2CCCC2)c2nc(Nc3ccc(N4CCC(O)CC4)cn3)ncc21`, the kinase still bound, per cent of control was 23% at GAK (human); 6.4% in assay [3]; 24% at PLK1 (human); 16% at PLK4 (human); 2.2% on TTK (human) [1]. The Kd at TTK (human) [1] came out at 130 nM. For the same compound, the half-maximal inhibitory concentration (IC50) on CSF1R (human) is 428 nM; at DCLK2 (human), 3200 nM; against FRK (human), 264 nM; against PTK6 (human), 47 nM; on TTK (human) [2], 891 nM.

As for `N=C1NC(=O)/C(=C/c2ccc(-c3ccc(S(N)(=O)=O)cc3)o2)S1`, the kinase still bound, per cent of control was determined as 30% on ACVR2B (human); 24% on BRAF (human); 1.2% at CDK16 (human); 17% at CDK3 (human); 9.6% on CDK5 (human); 23% on CDK7 (human). Moreover, the kinase still bound, per cent of control is 3.5% on DAPK1 (human); 16% on DAPK2 (human); 24% on DAPK3 (human); 9.9% on GSK3A (human); 0.65% at HIPK1 (human) [4]; 12% on MAPK12 (human). For the same compound, the kinase still bound, per cent of control stood at 5.4% at MAPK15 (human); 6.7% on MYLK4 (human); 18% at NLK (human); 3% at PIM1 (human) [5]; 1.8% at PIM2 (human) [6]; 4.8% on PIM3 (human). In addition, the kinase still bound, per cent of control is 15% on PLK4 (human); 1.1% on STK17A (human); 6% at STK17B (human); 2.4% on TAOK1 (human); 29% on TAOK3 (human); 22% at TGFBR2 (human). On TTK (human) [1], this compound gave a kinase still bound, per cent of control of 24%. The figures for the IC50 against PIM1 (human) [7] and against PIM2 (human) [8] were 573 nM and 501 nM, respectively.

Regarding `N=C1NC(=O)/C(=C/c2c[nH]c(=O)c(-c3ccc4cc[nH]c4c3)c2)S1`, the kinase still bound, per cent of control worked out at 20% on AAK1 (human); 6.2% at BMPR1B (human); 29% at CAMKK2 (human); 24% at CLK1 (human); 4.8% on CLK2 (human); 30% on CLK4 (human). For the same compound, the kinase still bound, per cent of control amounted to 24% on CSNK1G1 (human); 9.7% at DAPK1 (human); 4% on DAPK2 (human); 8.6% at DAPK3 (human); 8.6% on DYRK1B (human) [9]; 21% in assay [10]. Besides, the kinase still bound, per cent of control on HIPK1 (human) [4] amounted to 4.2%; on MAP4K2 (human), 15%; at MAPK10 (human), 29%; at MAPK8 (human), 28%; at PAK2 (human), 34%; on PIM1 (human) [5] it was 16%. The kinase still bound, per cent of control was 15% on PIM2 (human) [6]; 12% on PIM3 (human); 8.8% at RPS6KA4 KD2 (human); 23% on RPS6KA5 KD2 (human); 5% on STK17A (human); 13% on STK17B (human). In addition, the half-maximal inhibitory concentration (IC50) at DYRK1A (human) was found to be 19 nM; on DYRK1B (human) [11] it was 62 nM; at HIPK1 (human) [12] it was 3810 nM; against HIPK2 (human) it was 3890 nM.
